# Results published in patent US20030229066A1, “Novel heterocyclic urea derivatives and their use as dopamine D3 receptor ligands” (priority 2001, published 2003).
# Target: T1, cloned human dopamine D3 receptors (Homo sapiens, UniProt P35462)
# T1 construct: expressed in transfected cells
# Experiment: [N-Methyl-3H]Spiroperidol binding to cloned human dopamine D3 receptors
# Details: not given
# Description: [N-Methyl-^3H]Spiroperidol Binding to Cloned Human Dopamine D3 Receptors
# This assay measures the in vitro activity of compounds on cloned human dopamine (D3) receptors and predicts the direct dopamine-blocking properties of putative neuropsychiatric agents at human dopamine D3 receptors.
# The D3 gene was isolated from a human striatal cDNA library (Stratagene). The gene was sequenced and sub-cloned into the expression vector RC/RSV (Invitrogen). CHO (Chinese Hamster Ovary) cells were stably transfected with 10 μg of the D3/RSV plasmid using the DOTAP method from Boehringer Mannheim and 72 clones that were G418 resistant were isolated. Using mRNA and binding displacement data a single high expressing clone was identified. This clone was then grown in large batches for the purpose of developing a 96 well format assay.
# The cells are harvested into 250 ml centrifuge tubes with 100 volumes of cold phosphate buffered saline (PBS) and spun down (1200×G for 10 min at 4° C.). The medium is removed and 100 ml PBS are added to each centrifuge tube, cells are resuspened and spun down again. The PBS is removed and the final pellet is homogenized in an appropriate volume of 10% DMSO with a polytron on ice at a medium setting.
# For Kj determinations: [^3H]NMSP is made up to a concentration of 2.7 nM in buffer 2b, such that when 150 μl is added to each tube a final concentration of 0.4 nM is attained in the 1 ml assay. Samples of total CPM added are taken for each experiment to calculate the total ligand concentration.
# 5. S(-)-Eticlopride is obtained from Research Biochemicals International (RBI catalog number E-101). A refrigerated stock (good for up to a month) solution of S(-)-eticlopride is made at a concentration of 30 μM in buffer 2b. One hundred microliters are added to 3 wells for the determination of nonspecific binding (this yields a final concentration of 3 μM in the 1 ml assay).
# For most assays, a 100 μM stock solution of the test compound is made up in a suitable solvent (usually <0.1% acetic acid) and serially diluted with buffer 2b, such that when 100 μl of drug is combined with the total 1 ml assay, final concentrations ranging from 10^−5-10^−8 M are attained. Characteristically eight concentrations are studied for each assay; however, higher or lower concentrations may be used, depending on the potency of the drug.
# The 96-Well Packard Unifilters GF/B are incubated for >1 h at 25° C. in 0.1% polyethylamine (from 3,b). The cold tissue is added last and mixed on a orbital shaker for a few seconds and is then incubated at 37° C. for 30 min in a shaking water bath. The assay is stopped by rapid filtration through Packard Unifilter plates. The filter membranes are then washed with 15 ml of ice-cold 0.05 M Tris buffer. The filters are then dried (˜15 min under a heat lamp or incubated for 15 min in a 60° C. oven) and a bottom seal is applied. Then 40 μl of Packard Microscint 20 scintillation cocktail is added and a permanent topseal (Type P) is applied and heat sealed. The plates are then shaken on an orbital shaker for 1 h and placed in the Packard Topcount and counted for at least 5 minutes for each point.
# Specific binding is defined as the difference between total binding and the binding in the presence of 3 μM S-(-)-eticlopride. Total binding is approximately 10% of the total added ligand. Cheng-Prusoff determination (Kj's) are performed using Prism software using a one-site competition curve analysis where the top and the bottom of the non-linear regression are held constant at 0% and 100% percent inhibition. The percent inhibition at each drug concentration is the mean of duplicate determinations.
# T1 sequence (P35462 whole entry): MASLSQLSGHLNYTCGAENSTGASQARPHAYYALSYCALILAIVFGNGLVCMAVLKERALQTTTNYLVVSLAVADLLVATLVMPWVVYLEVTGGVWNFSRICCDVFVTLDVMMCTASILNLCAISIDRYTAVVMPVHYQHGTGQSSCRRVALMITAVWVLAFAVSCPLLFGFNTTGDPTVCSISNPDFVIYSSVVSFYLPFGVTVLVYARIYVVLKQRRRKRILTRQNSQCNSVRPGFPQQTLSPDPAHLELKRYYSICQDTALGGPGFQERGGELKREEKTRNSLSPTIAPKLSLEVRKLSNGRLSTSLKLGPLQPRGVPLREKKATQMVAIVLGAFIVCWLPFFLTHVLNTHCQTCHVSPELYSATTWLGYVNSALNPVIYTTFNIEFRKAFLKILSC
row,Ki,SMILES
1,35.5 nM,O=C(NCCCCN1CCN(c2n[nH]c3ccsc23)CC1)Nc1ccc(C(F)(F)F)cc1 [compound 825154]
2,84.8 nM,O=C(NCCCCN1CCN(c2n[nH]c3ccsc23)CC1)Nc1ccc(OC(F)(F)F)cc1 [compound 825155]
3,63.2 nM,CCOc1ccc(NC(=O)NCCCCN2CCN(c3n[nH]c4ccsc34)CC2)cc1 [compound 825156]
4,202 nM,O=C(NCCCCN1CCN(c2nn(C(=O)Nc3ccccc3C(F)(F)F)c3ccsc23)CC1)Nc1ccccc1C(F)(F)F [compound 825160]
5,374 nM,O=C(NCCCCN1CCN(c2nn(C(=O)Nc3ccc(OC(F)(F)F)cc3)c3ccsc23)CC1)Nc1ccc(OC(F)(F)F)cc1 [compound 825167]
6,47.4 nM,CCOc1ccc(NC(=O)NCCCCN2CCN(c3nn(C(=O)Nc4ccc(OCC)cc4)c4ccsc34)CC2)cc1 [compound 825168]
7,136 nM,O=C(NCCCCN1CCN(c2cn(C(=O)Nc3ccc(F)cc3)c3ccsc23)CC1)Nc1ccc(F)cc1 [compound 825170]
8,496 nM,O=C(NCCCCN1CCN(c2nn(C(=O)Nc3ccc(F)cc3F)c3ccsc23)CC1)Nc1ccc(F)cc1F [compound 825171]
9,43 nM,O=C(NCCCCN1CCCN(c2csc3cc(F)ccc23)CC1)Nc1ccc(Cl)c(Cl)c1 [compound 829191]
10,4.03 nM,Cc1cccc(NC(=O)NCCCCN2CCCN(c3csc4cc(F)ccc34)CC2)c1 [compound 829192]
11,7.86 nM,O=C(NCCCCN1CCCN(c2csc3cc(F)ccc23)CC1)Nc1cccc(Cl)c1 [compound 829193]
12,21.1 nM,O=C(NCCCCN1CCCN(c2csc3cc(F)ccc23)CC1)Nc1ccc(C(F)(F)F)cc1 [compound 829195]
13,10.9 nM,O=C(NCCCCN1CCCN(c2csc3cc(F)ccc23)CC1)Nc1cccc(Br)c1 [compound 829196]
14,34.8 nM,O=C(NCCCCN1CCCN(c2csc3cc(F)ccc23)CC1)Nc1ccc(OC(F)(F)F)cc1 [compound 829197]
15,65.6 nM,O=C(NCCCCN1CCCN(c2csc3cc(F)ccc23)CC1)Nc1cc(C(F)(F)F)cc(C(F)(F)F)c1 [compound 829198]
16,47.8 nM,O=C(NCCCCN1CCCN(c2csc3cc(F)ccc23)CC1)Nc1ccc(Cl)c(C(F)(F)F)c1 [compound 829200]

row,Ki,SMILES
1,16.6 nM,O=C(NCCCCN1CCCN(c2csc3cc(F)ccc23)CC1)Nc1cc(Cl)cc(Cl)c1 [compound 829202]
2,5.64 nM,Cc1ccc(NC(=O)NCCCCN2CCCN(c3csc4cc(F)ccc34)CC2)cc1 [compound 829203]
3,5 nM,CSc1ccc(NC(=O)NCCCCN2CCCN(c3csc4cc(F)ccc34)CC2)cc1 [compound 829204]
4,2.5 nM,CC(=O)c1cccc(NC(=O)NCCCCN2CCCN(c3csc4cc(F)ccc34)CC2)c1 [compound 829206]
5,141 nM,CC(C)c1ccc(NC(=O)NCCCCN2CCCN(c3csc4cc(F)ccc34)CC2)cc1 [compound 829207]
6,1.99 nM,COc1cc(NC(=O)NCCCCN2CCCN(c3csc4cc(F)ccc34)CC2)cc(OC)c1OC [compound 829210]
7,16 nM,O=C(NCCCCN1CCCN(c2csc3cc(F)ccc23)CC1)Nc1cc(C(F)(F)F)ccc1F [compound 829211]
8,49.9 nM,O=C(NCCCCN1CCCN(c2csc3cc(F)ccc23)CC1)Nc1c(F)cccc1C(F)(F)F [compound 829212]
9,181 nM,O=C(NCCCCN1CCCN(c2csc3cc(F)ccc23)CC1)Nc1ccc(F)c(C(F)(F)F)c1 [compound 829213]
10,14.1 nM,O=C(NCCCCN1CCCN(c2csc3cc(F)ccc23)CC1)Nc1ccc(Cl)cc1 [compound 829214]
11,6.59 nM,O=C(NCCCCN1CCCN(c2csc3cc(F)ccc23)CC1)Nc1ccc(F)cc1 [compound 829215]
12,0.178 nM,O=C(NCCCCN1CCCN(c2csc3cc(F)ccc23)CC1)Nc1ccccc1F [compound 829216]
13,3.51 nM,O=C(NCCCCN1CCCN(c2csc3cc(F)ccc23)CC1)Nc1cccc(F)c1 [compound 829217]
14,0.165 nM,O=C(NCCCCN1CCCN(c2csc3cc(F)ccc23)CC1)Nc1cccc(C(F)(F)F)c1 [compound 829218]
15,0.0926 nM,COc1ccc(NC(=O)NCCCCN2CCCN(c3csc4cc(F)ccc34)CC2)cc1 [compound 829219]
16,18.1 nM,O=C(NCCCCN1CCCN(c2csc3cc(F)ccc23)CC1)Nc1ccc(Br)cc1 [compound 829220]

row,SMILES,Ki
1,CC(=O)c1ccc(NC(=O)NCCCCN2C3CCC2CC(c2noc4cc(F)ccc24)C3)cc1 (stereo not drawn) [compound 817228],179 nM
2,O=C(NCCCCN1C2CCC1CC(c1noc3cc(F)ccc13)C2)Nc1ccccc1F (stereo not drawn) [compound 817229],365 nM
3,O=C(NCCCCN1C2CCC1CC(c1noc3cc(F)ccc13)C2)Nc1ccc(-c2ccccc2)cc1 (stereo not drawn) [compound 817230],182 nM
4,O=C(NCCCCN1C2CCC1CC(c1noc3cc(F)ccc13)C2)Nc1cccc(C(F)(F)F)c1 (stereo not drawn) [compound 817231],433 nM
5,Cc1ccc(NC(=O)NCCCCN2C3CCC2CC(c2noc4cc(F)ccc24)C3)cc1 (stereo not drawn) [compound 817234],256 nM

# Same assay, conditions: Table III; read-out: d3Ki
row,Ki,SMILES
1,187 nM,O=C(NCCCCN1CCC(c2noc3ccsc23)CC1)NC12CC3CC(CC(C3)C1)C2 [compound 816210]
2,184 nM,CC(=O)c1ccc(NC(=O)NCCCCN2CCN(c3c(-c4ccccc4)sc4cc(F)ccc34)CC2)cc1 [compound 816226]
3,5.94 nM,O=C(NCCCCN1CCN(c2c(-c3ccccc3)sc3cc(F)ccc23)CC1)NC1CCCCC1 [compound 816232]
4,20.7 nM,O=C(NCCCCN1CCC(c2noc3ccsc23)CC1)Nc1ccc(F)c([N+](=O)[O-])c1 [compound 816557]
5,13.1 nM,O=C(NCCCCN1CCC(c2noc3ccsc23)CC1)Nc1ccc(Cl)c([N+](=O)[O-])c1 [compound 816559]
6,6.99 nM,O=C(NCCCCN1CCC(c2noc3ccsc23)CC1)Nc1ccc([N+](=O)[O-])cc1 [compound 816562]
7,55.9 nM,CCCCOc1ccc(NC(=O)NCCCCN2CCC(c3noc4ccsc34)CC2)cc1 [compound 816564]
8,95.1 nM,O=C(NCCCCN1CCC(c2noc3ccsc23)CC1)Nc1ccc(Cl)cc1Cl [compound 816566]
9,73.8 nM,COc1ccc(NC(=O)NCCCCN2CCC(c3noc4ccsc34)CC2)c(OC)c1 [compound 816567]
10,85.4 nM,CCOc1ccccc1NC(=O)NCCCCN1CCC(c2noc3ccsc23)CC1 [compound 816764]
11,42.9 nM,O=C(NCCCCN1CCC(c2noc3ccsc23)CC1)Nc1c(F)cccc1F [compound 816766]
12,60.1 nM,COc1ccc(NC(=O)NCCCCN2CCC(c3noc4ccsc34)CC2)c(OC)c1 [compound 816767]
13,57.8 nM,O=C(NCCCCN1CCC(c2noc3ccsc23)CC1)Nc1ccc(Cl)cc1Cl [compound 816769]
14,28.2 nM,COc1cc(Cl)c(NC(=O)NCCCCN2CCC(c3noc4ccsc34)CC2)c(OC)c1 [compound 816770]
15,74.1 nM,COc1c(Cl)cccc1NC(=O)NCCCCN1CCC(c2noc3ccsc23)CC1 [compound 816771]
16,46.9 nM,CCOc1ccccc1NC(=O)NCCCCN1CCC(c2noc3ccsc23)CC1 [compound 816876]
17,33.8 nM,O=C(NCCCCN1CCC(c2noc3ccsc23)CC1)Nc1c(F)cccc1F [compound 816878]
18,47 nM,COc1ccc(NC(=O)NCCCCN2CCC(c3noc4ccsc34)CC2)c(OC)c1 [compound 816879]
19,23.8 nM,O=C(NCCCCN1CCC(c2noc3ccsc23)CC1)Nc1cc(C(F)(F)F)cc(C(F)(F)F)c1 [compound 816881]
20,58.6 nM,COc1cc(Cl)c(NC(=O)NCCCCN2CCC(c3noc4ccsc34)CC2)c(OC)c1 [compound 816882]
21,35.5 nM,COc1c(Cl)cccc1NC(=O)NCCCCN1CCC(c2noc3ccsc23)CC1 [compound 816883]
22,24.2 nM,O=C(NCCCCN1CCC(c2noc3ccsc23)CC1)NCc1ccc(Cl)cc1Cl [compound 816968]
23,133 nM,COc1ccc(NC(=O)NCCCCN2CCC(c3noc4ccsc34)CC2)c(OC)c1 [compound 818310]
